Assay results from article PMC6017873 (Molecules : A Journal of Synthetic Chemistry and Natural …, 2018).

Experiments:
K-562 cells = experiment: Acetylation of histone H4 and α-tubulin by Western blot, K-562; type: cell-based, human; conditions: K-562, 5 or 50 µM
Experimental: Total proteins were extracted using the MPER® reagent (Thermo-scientific, […], Belgium) supplemented by 1× protease inhibitor cocktail (Complete EDTA-free, Roche, Prophac, Luxembourg, Luxembourg) according to manufacturer's instructions. Histones were extracted as previously described. Western blots were carried out as previously reported. Anti-acetylated α-tubulin (sc-23950) was from Santa Cruz Biotechnology (Tebubio, Boechout, Belgium); anti-acetylated histone H4 (06-866), anti-acetylated histone […] K-562 cells were treated with […] Acetylation of histone H4 (AcH4) and α-tubulin (Ac α- tubulin) was analyzed by Western Blot. β-actin and histone H1 were used as loading controls for the analysis of total and acid extracts, respectively. Blots are representative of three independent experiments. […]

SIRT3 = target: T1, SIRT3 (Homo sapiens, UniProt Q9NTG7); parameters: method as in PMID 28475330; conditions: cited from earlier work
T1 sequence (Q9NTG7 1-399): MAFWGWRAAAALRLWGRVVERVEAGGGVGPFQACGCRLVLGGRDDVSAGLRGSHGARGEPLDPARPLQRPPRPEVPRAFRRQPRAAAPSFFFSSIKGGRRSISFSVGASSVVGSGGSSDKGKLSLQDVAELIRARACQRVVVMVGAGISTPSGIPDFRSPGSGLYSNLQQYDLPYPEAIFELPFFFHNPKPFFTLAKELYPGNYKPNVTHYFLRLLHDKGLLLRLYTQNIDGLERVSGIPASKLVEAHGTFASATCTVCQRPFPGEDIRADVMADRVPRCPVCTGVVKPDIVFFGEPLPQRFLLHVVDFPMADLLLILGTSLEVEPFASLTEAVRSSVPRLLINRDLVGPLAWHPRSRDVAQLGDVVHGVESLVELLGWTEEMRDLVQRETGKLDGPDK

SIRT1 = target: T2, SIRT1 (Homo sapiens, UniProt Q96EB6); parameters: method as in PMID 28475330; conditions: reference inhibitors, same experimental conditions; cited from earlier work
T2 sequence (Q96EB6 1-747): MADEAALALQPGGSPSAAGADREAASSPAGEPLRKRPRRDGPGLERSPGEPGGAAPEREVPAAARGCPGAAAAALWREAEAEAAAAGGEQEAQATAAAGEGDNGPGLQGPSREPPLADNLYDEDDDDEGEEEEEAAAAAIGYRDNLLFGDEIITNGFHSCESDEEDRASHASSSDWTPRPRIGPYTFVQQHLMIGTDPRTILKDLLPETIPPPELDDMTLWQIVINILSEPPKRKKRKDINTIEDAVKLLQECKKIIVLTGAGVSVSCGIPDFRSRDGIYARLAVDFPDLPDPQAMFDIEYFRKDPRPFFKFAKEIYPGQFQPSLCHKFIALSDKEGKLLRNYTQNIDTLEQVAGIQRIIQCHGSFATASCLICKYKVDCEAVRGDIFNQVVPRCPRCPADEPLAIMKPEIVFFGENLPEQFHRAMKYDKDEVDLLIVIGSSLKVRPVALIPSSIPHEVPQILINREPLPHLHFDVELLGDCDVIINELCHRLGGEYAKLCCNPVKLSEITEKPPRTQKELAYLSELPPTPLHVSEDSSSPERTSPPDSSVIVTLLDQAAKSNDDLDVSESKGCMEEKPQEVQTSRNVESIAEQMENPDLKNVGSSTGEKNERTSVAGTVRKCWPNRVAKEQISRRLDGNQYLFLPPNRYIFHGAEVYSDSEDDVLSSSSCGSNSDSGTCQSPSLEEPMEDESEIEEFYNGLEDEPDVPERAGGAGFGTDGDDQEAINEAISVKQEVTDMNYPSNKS

[1] = reference inhibitors, same experimental conditions

## Cc1ccc(C(=O)Nc2ccc(S(=O)(=O)O)c3cc(S(=O)(=O)O)cc(S(=O)(=O)O)c23)cc1NC(=O)c1cccc(NC(=O)Nc2cccc(C(=O)Nc3cc(C(=O)Nc4ccc(S(=O)(=O)O)c5cc(S(=O)(=O)O)cc(S(=O)(=O)O)c45)ccc3C)c2)c1 [Suramin, suramin]
K-562 cells
  histone H4 or α-tubulin acetylation: fails to induce histone H4 or α-tubulin acetylation
K-562 cells; listed as suramin
  histone H4 or α-tubulin acetylation: failed to induce any increase in histone or α-tubulin acetylation
SIRT3; at 100 µM
  remaining SIRT3 enzymatic activity compared to the control set to 100%: 70%
SIRT3; [1]
  IC50: > 100 µM
  IC50 SIRT3: inactive

## N#C/C(=C\c1ccc(-c2cc(Cl)ccc2Cl)o1)C(=O)Nc1cccc2ncccc12 [AGK2]
SIRT1
  IC50: 98.1 ± 2.4 µM
